For two molecules, IC50 results are on record in BindingDB's records for doi:10.1021/jm950507y (Glaxo Wellcome Research Institute, 1996).

This assay can be described thus: Average concentration of compound to cause 50% inhibition of topoisomerase-1 isolated from calf thymus.

The structures appear in SMILES notation. pIC50: −log10 of the molar value.

Take `CC[C@@]1(O)C(=O)OCc2c1cc1n(c2=O)Cc2c-1nc1cc3c(cc1c2C[n+]1ccncc1)OCCO3` [8-ethyl-8-hydroxy-15-pyrazin-1-ium-1-ylmethyl-(8S)-2,3,8,9,12,14-hexahydro-11H-[1,4]dioxino[3,2-g]pyrano[3',4':6,7]indolizino[1,2-b]quinoline-9,12-dione]: the pIC50 is 6.74.

Consider `CC[C@@]1(O)C(=O)OCc2c1cc1n(c2=O)Cc2c-1nc1cc3c(cc1c2C[n+]1ccccc1)OCCO3` [8-ethyl-8-hydroxy-15-(1-pyridiniumylmethyl)-(8S)-2,3,8,9,12,14-hexahydro-11H-[1,4]dioxino[3,2-g]pyrano[3',4':6,7]indolizino[1,2-b]quinoline-9,12-dione], for which the pIC50 is 6.72.
